Measured values: PMC5308256 (2017)

Columns and labels:
[1] = system: FAM-A40-DABCYL (A40) (DNA, hairpin) AAAAAAAAAAAAAAAAAAAAAAAAAAAAAAAAAAAAAAAA; assay: FAM/DABCYL fluorescence quenching titration; details: 10 mM HEPES pH 7.3; 10 nM DNA; saturation at 0.6 μM coralyne
[2] = system: label-free A12-MB-A12 (DNA, hairpin) AAAAAAAAAAAACATCATAGTCGAGTGTCCAGGGAAAAAAAAAAAA; assay: SYBR Green I fluorescence enhancement on folding; details: 10 mM HEPES pH 7.3; 0.5 μM DNA; 160 nM SYBR Green I
[3] = system: A12-MB-A12 (FAM/DABCYL-labeled) (DNA, hairpin) AAAAAAAAAAAACATCATAGTCGAGTGTCCAGGGAAAAAAAAAAAA; assay: FAM/DABCYL fluorescence quenching titration; details: 10 mM HEPES pH 7.3; 10 nM DNA; saturation at 0.6 μM coralyne

binding [1]: yes | binding [2]: yes | Kd [3]: 500 nM
Compound: COc1cc2cc3c4cc(OC)c(OC)cc4cc[n+]3c(C)c2cc1OC
